The source of these data is patent US9758459B2, “Allosteric modulators of factor XIa as anticoagulant agents” (VIRGINIA COMMONWEALTH UNIVERSITY, priority 2012, dated 2017).

Molecules are shown by their SMILES. Where “and” joins values, the source holds several entries; their conditions need not be identical. Equal entries are not always repeated.

The assay deals with T1, human factor XIa (Homo sapiens, UniProt P03951).
T1 construct: purchased Haematologic Technologies (Essex Junction, Vt.); host or cells: human plasma
Kind of assay: Direct inhibition of factor XIa, chromogenic substrate S-2366 hydrolysis assay. It is filed as biochemical. To be noted: for IC50 / ΔY % (efficacy): sulfated QAOs; for IC50: read-out: IC50 (converted). How it is done:
Solvent A consisted of 25 mM n-hexylamine in water containing 0.1% (v/v) formic acid, while solvent B consisted of 25 mM n-hexylamine in acetonitrile-water mixture (3:1 v/v) containing 0.1% (v/v) formic acid. […] The sample was first monitored for absorbance in the range of 190-400 nm and then directly introduced into the mass spectrometer. ESI-MS detection was performed in positive ion mode for which the capillary voltage was 4 kV, cone voltage was 20 V, desolvation temperature was 350° C. and nitrogen gas flow was maintained at 650 L/hr. Mass scans were collected in the range of 1000-2048 amu within 0.25 s and several of these added to enhanced signal-to-noise ratio. Direct Inhibition of Factor XIa. […] After 10 min incubation, 5 μL factor XIa substrate (345 μM) was rapidly added and the residual FXIa activity was measured from the initial rate of increase in absorbance at 405 nm. […] Relative residual FXIa activity at each concentration of the inhibitor was calculated from the ratio of FXIa activity in the presence and absence of the inhibitor. Logistic equation 1 was used to fit the dose-dependence of residual protease activity to obtain the potency (IC50) and efficacy (ΔY) of inhibition.
Direct Inhibition of Factor XIa by Sulfated QAOs was performed as described in Example 1.
The ability of the sulfated inositol analogs to inhibit factor XIa was studied using the in vitro assay described in Example 1. In this assay, the factor XIa enzyme is anticipated to hydrolyze a particular peptide linkage in the corresponding peptide substrate releasing p-nitroaniline which absorbs at wavelength of 405 nm giving a line slope corresponds to the enzyme activity. The line slope of no inhibitor status is considered as a reference slope and it depends on the relative concentrations of factor XIa enzyme and its substrate. Factor XIa enzyme concentration was decided to get appropriate reference slope of approximately 25-35, whereas the substrate concentration was set to be larger than its affinity to factor XIa enzyme under equilibrium condition, Km. In presence of potential factor XIa inhibitor, the enzyme capacity to hydrolyze the designated peptide linkage in the substrate gets diminished or completely abolished depending on the inhibitor concentration and efficacy. […] Such decreased slope reflects a drop in the catalytic enzyme activity of factor XIa.

T1 sequence (P03951 19-387 limits assumed): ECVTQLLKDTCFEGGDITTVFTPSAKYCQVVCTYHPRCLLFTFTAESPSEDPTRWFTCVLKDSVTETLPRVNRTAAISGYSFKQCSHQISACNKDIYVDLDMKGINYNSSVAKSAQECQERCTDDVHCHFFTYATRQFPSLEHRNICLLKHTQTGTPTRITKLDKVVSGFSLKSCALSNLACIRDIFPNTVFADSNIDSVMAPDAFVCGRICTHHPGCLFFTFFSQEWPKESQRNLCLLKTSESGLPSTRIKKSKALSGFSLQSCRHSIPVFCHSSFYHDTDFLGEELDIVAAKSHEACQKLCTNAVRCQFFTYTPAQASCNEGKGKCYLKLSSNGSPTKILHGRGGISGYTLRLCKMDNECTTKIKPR
T1 sequence (P03951 388-625 limits assumed): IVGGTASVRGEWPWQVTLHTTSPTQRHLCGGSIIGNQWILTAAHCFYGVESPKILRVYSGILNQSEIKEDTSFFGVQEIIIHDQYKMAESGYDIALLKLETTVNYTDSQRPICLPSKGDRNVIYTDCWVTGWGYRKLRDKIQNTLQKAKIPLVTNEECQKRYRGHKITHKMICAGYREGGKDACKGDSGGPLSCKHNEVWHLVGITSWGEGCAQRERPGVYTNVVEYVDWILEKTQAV

As for `O=C(OC[C@H]1O[C@@H](OC(=O)c2cc(O)c(O)c(O)c2)[C@H](OC(=O)c2cc(O)c(O)c(O)c2)[C@@H](OC(=O)c2cc(O)c(O)c(O)c2)[C@@H]1OC(=O)c1cc(O)c(O)c(O)c1)c1cc(O)c(O)c(O)c1` [Inhibitor 5, pentagalloyl glucopyranoside, reference compound], the “inhibition of FXIa proteolytic activity” value (highest concentration tested (300 μM)) is “completely inactive”. `CC(=O)Oc1cccc(-c2nc3ccccc3c(=O)n2Cc2cn(CCCCn3c(-c4cccc(OS(=O)(=O)O)c4)nc4ccccc4c3=O)nn2)c1` [Inhibitor 7S]: where the note is “pH 7.4, 37° C.”, the “factor XIa inhibition (in words)” value was “inactive” and the IC50 (in general, the concentration needed to halve the response being measured) was more than 1000 µM.

For `O=c1c2ccccc2nc(-c2cccc(OS(=O)(=O)O)c2)n1CCCCn1cc(Cn2c(-c3cccc(OS(=O)(=O)O)c3)nc3ccccc3c2=O)nn1` [Inhibitor 8S], the “ΔY % (efficacy)” value is recorded as 100 ± 6%. As for `CC(=O)Oc1cc(OS(=O)(=O)O)cc(-c2nc3ccccc3c(=O)n2Cc2cn(CCCCn3c(-c4cccc(OS(=O)(=O)O)c4)nc4ccccc4c3=O)nn2)c1` [Inhibitor 9S], the “ΔY % (efficacy)” value is on record as 96 ± 1%. The IC50 (pH 7.4, 37° C.) was 153 µM. In the same order, the values of `COc1cc(-c2nc3ccccc3c(=O)n2CCCCn2cc(Cn3c(-c4ccc(OS(=O)(=O)O)c(OC)c4)nc4ccccc4c3=O)nn2)ccc1OS(=O)(=O)O` [Inhibitor 10S] are 95 ± 1% and 139 ± 1 µM.

For the compound `O=c1c2ccccc2nc(-c2cccc(OS(=O)(=O)O)c2)n1CCCn1cc(Cn2c(-c3cccc(OS(=O)(=O)O)c3)nc3ccccc3c2=O)nn1` [Inhibitor 11S], the “ΔY % (efficacy)” value is reported as 91 ± 4%. Take `O=c1c2ccccc2nc(-c2ccc(OS(=O)(=O)O)cc2)n1CCCCn1cc(Cn2c(-c3cccc(OS(=O)(=O)O)c3)nc3ccccc3c2=O)nn1` [Inhibitor 12S]: the “ΔY % (efficacy)” value is 88 ± 3%. The IC50 (pH 7.4, 37° C.) was 159 ± 2 µM. In the same order, the values of `COc1cc(-c2nc3ccccc3c(=O)n2CCCCn2cc(Cn3c(-c4cccc(OS(=O)(=O)O)c4)nc4ccccc4c3=O)nn2)ccc1OS(=O)(=O)O` [Inhibitor 17S] are 88 ± 5% and 182 ± 1 µM. As for `O=c1c2ccccc2nc(-c2cccc(OS(=O)(=O)O)c2)n1CCCCn1cc(Cn2c(-c3cc(OS(=O)(=O)O)cc(OS(=O)(=O)O)c3)nc3ccccc3c2=O)nn1` [Inhibitor 18S], the “ΔY % (efficacy)” value amounted to 93 ± 2%. For the same compound, the IC50 (pH 7.4, 37° C.) was 213 ± 2 µM.

Regarding `CC(=O)Oc1cc(OS(=O)(=O)O)cc(-c2nc3ccccc3c(=O)n2CCCCn2cc(Cn3c(-c4cc(OS(=O)(=O)O)cc(OS(=O)(=O)O)c4)nc4ccccc4c3=O)nn2)c1` [Inhibitor 19S], the “ΔY % (efficacy)” value was determined as 91 ± 2%. Moreover, where the note is “pH 7.4, 37° C.”, the IC50 was 273 ± 3 µM.

Regarding `O=c1c2ccccc2nc(-c2cc(OS(=O)(=O)O)cc(OS(=O)(=O)O)c2)n1CCCCn1cc(Cn2c(-c3cc(OS(=O)(=O)O)cc(OS(=O)(=O)O)c3)nc3ccccc3c2=O)nn1` [Inhibitor 20S], the IC50 (pH 7.4, 37° C.) was more than 1000 µM. Same read-out and setting: then `COc1cc(OS(=O)(=O)O)cc2oc(-c3ccc(OS(=O)(=O)O)c(OCc4cn(CCCCn5c(-c6cccc(OS(=O)(=O)O)c6)nc6ccccc6c5=O)nn4)c3)c(OS(=O)(=O)O)c(=O)c12` [Inhibitor 25S], with more than 1000 µM; and `COc1cc(-c2nc3ccccc3c(=O)n2CCCCn2cc(COc3cc(-c4oc5cc(OS(=O)(=O)O)cc(OC)c5c(=O)c4OS(=O)(=O)O)ccc3OS(=O)(=O)O)nn2)ccc1OS(=O)(=O)O` [Inhibitor 26S], with 216 µM.

With `O=c1c2ccccc2nc(-c2ccc(OS(=O)(=O)O)cc2)n1Cc1cn(CCn2cc(Cn3c(-c4ccc(OS(=O)(=O)O)cc4)nc4ccccc4c3=O)nn2)nn1` [Inhibitor 28S], the “ΔY % (efficacy)” value was 98 ± 3%. As to `O=c1c2ccccc2nc(-c2ccc(OS(=O)(=O)O)cc2)n1CCCCCn1nncc1Cn1c(-c2ccc(OS(=O)(=O)O)cc2)nc2ccccc2c1=O` [Inhibitor 29S], the “ΔY % (efficacy)” value came to 94 ± 1%. Further, the IC50 (pH 7.4, 37° C.) is 94 µM and 90 µM.
